Measured values published in BindingDB's records for doi:10.7270/Q24T6GSH (The Scripps Research Institute Molecular Screening Center, 2007).
Structures can show the parent of a compound that is named as a salt.

Target: T1, Isoform 2 of Nuclear receptor ROR-alpha (Alpha-2) (Homo sapiens, UniProt P35398)
T1 sequence (P35398 whole entry): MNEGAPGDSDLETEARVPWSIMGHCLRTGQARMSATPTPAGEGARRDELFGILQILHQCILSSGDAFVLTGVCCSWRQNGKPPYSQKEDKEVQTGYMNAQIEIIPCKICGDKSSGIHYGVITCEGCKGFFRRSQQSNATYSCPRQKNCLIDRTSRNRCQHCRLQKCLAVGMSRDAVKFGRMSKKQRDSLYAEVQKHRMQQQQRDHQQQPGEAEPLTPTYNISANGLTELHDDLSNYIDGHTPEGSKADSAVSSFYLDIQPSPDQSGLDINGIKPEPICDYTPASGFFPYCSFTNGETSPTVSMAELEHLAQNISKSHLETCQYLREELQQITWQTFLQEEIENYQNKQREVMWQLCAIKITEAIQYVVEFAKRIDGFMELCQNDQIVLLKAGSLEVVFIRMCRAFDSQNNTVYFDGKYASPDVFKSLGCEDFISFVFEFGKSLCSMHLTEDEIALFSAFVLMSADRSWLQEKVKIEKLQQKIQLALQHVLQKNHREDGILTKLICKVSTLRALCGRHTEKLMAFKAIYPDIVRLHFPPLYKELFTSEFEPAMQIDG
Assay: activators of RORA ligand-binding domain fusion – cell-based, CHO-K1, Gal4-RORA LBD, luciferase luminescence, counter-screen for SF-1 activator project, dose response (AID 675)

COC(=O)c1ccc(C(=O)C(C#N)c2nc3ccccc3s2)cc1 (stereo not given) [4-[(2Z)-2-(3H-1,3-benzothiazol-2-ylidene)-2-cyano-1-oxoethyl]benzoic acid methyl ester]
EC50: 1610 nM

Cc1ccc(C(=O)Nc2ncc(Cc3ccccc3)s2)o1 [5-Methyl-furan-2-carboxylic acid (5-benzyl-thiazol-2-yl)-amide]
EC50: > 407 nM

Cc1ccc(C(=O)Nc2ncc(Cc3ccc(F)cc3)s2)o1 [5-Methyl-furan-2-carboxylic acid [5-(4-fluoro-benzyl)-thiazol-2-yl]-amide]
EC50: > 407 nM

O=C(Nc1nccs1)c1ccc(COc2ccc(F)cc2)o1 [5-[(4-fluoranylphenoxy)methyl]-N-(1,3-thiazol-2-yl)furan-2-carboxamide]
EC50: 4710 nM

Nc1c(C(=O)NCc2ccco2)nnn1-c1ccccc1 [5-amino-N-(2-furanylmethyl)-1-phenyl-4-triazolecarboxamide]
EC50: > 3670 nM

CC1(C)Cc2c(sc(NC(=O)c3ccc(Br)o3)c2C#N)CO1 [5-bromanyl-N-(3-cyano-5,5-dimethyl-4,7-dihydrothieno[2,3-c]pyran-2-yl)furan-2-carboxamide]
EC50: 752 nM

COc1ccc(OC)c2sc(NC(=O)c3ccc(Br)s3)nc12 [5-bromanyl-N-(4,7-dimethoxy-1,3-benzothiazol-2-yl)thiophene-2-carboxamide]
EC50: > 99000 nM

O=C(Nc1cccc(-c2nnc(-c3ccccc3)o2)c1)c1ccc(Br)o1 [5-bromanyl-N-[3-(5-phenyl-1,3,4-oxadiazol-2-yl)phenyl]furan-2-carboxamide]
EC50: 8560 nM

CCc1ccc(C(=O)NCc2cccs2)s1 [5-ethyl-N-(2-thenyl)thiophene-2-carboxamide]
EC50: > 3670 nM

c1ccc(-c2cnc(CSc3nnc4ccccn34)o2)cc1 [5-phenyl-2-([1,2,4]triazolo[4,3-a]pyridin-3-ylsulfanylmethyl)-1,3-oxazole]
EC50: > 1220 nM

CCN(CC)c1ccc(-n2cc3c(=O)n(C)c(=O)n(C)c3c2)cc1 [6-(4-Diethylamino-phenyl)-1,3-dimethyl-1,6-dihydro-pyrrolo[3,4-d]pyrimidine-2,4-dione]
EC50 (inactive by the depositor's call): 12500 nM

COc1ccc(-c2cn3ccsc3n2)cc1 [6-(4-methoxyphenyl)imidazo[2,1-b][1,3]thiazole]
EC50: 283 nM

CCOC(=O)c1cnc2c(-c3ccccc3)cnn2c1N [7-amino-3-phenyl-6-pyrazolo[1,5-a]pyrimidinecarboxylic acid ethyl ester]
EC50: 356 nM

COCC(C)NC(=O)c1noc2c1CCc1cc(OC)ccc1-2 (stereo not given) [7-methoxy-N-(1-methoxypropan-2-yl)-4,5-dihydrobenzo[g][1,2]benzoxazole-3-carboxamide]
EC50: 1270 nM

CCc1nc(Nc2ccc3nccnc3c2)c2oc3ccccc3c2n1 [(2-ethylbenzofuro[3,2-d]pyrimidin-4-yl)-quinoxalin-6-yl-amine;hydrochloride]
EC50: > 99000 nM

CC(=Nc1cccc(O)c1)c1sc2ccccc2c1O [(2Z)-2-[1-(3-hydroxyanilino)ethylidene]-1-benzothiophen-3-one]
EC50: > 3670 nM

COC(=O)CSc1nc2cc(C)ccc2cc1C#N [(3-Cyano-7-methyl-quinolin-2-ylsulfanyl)-acetic acid methyl ester]
EC50: > 1220 nM

Cc1ccc(C2C(C(=O)c3cnn(-c4ccccc4)c3C)C(=O)C(=O)N2CCN(C)C)o1 (stereo not given) [(4E)-1-[2-(dimethylamino)ethyl]-4-[hydroxy-(5-methyl-1-phenyl-4-pyrazolyl)methylidene]-5-(5-methyl-2-furanyl)pyrrolidine-2,3-dione]
EC50: 4130 nM

CC(=NC1CCCC1)c1c(C)[nH]n(-c2nc3ccccc3s2)c1=O [(4Z)-2-(1,3-benzothiazol-2-yl)-4-[1-(cyclopentylamino)ethylidene]-5-methylpyrazol-3-one]
EC50: > 1220 nM

Cn1c(-c2ccc3c(c2)OCO3)cnc1NCc1ccccc1 [(5-Benzo[1,3]dioxol-5-yl-1-methyl-1H-imidazol-2-yl)-benzyl-amine]
EC50: 11200 nM

Fc1ccc2nc(Nc3nc4c(s3)CCCC4)sc2c1 [(6-fluoro-1,3-benzothiazol-2-yl)-(4,5,6,7-tetrahydro-1,3-benzothiazol-2-yl)amine]
EC50: 639 nM

CC(=N)C(C#N)C(=O)CSc1ccc2c(c1)OCCO2 (stereo not given) [(E)-3-amino-2-[2-(2,3-dihydro-1,4-benzodioxin-6-ylsulfanyl)acetyl]but-2-enenitrile]
EC50: 1160 nM

O=C(Nc1ccc(NC(=O)c2cccs2)cn1)c1ccco1 [Furan-2-carboxylic acid {5-[(thiophene-2-carbonyl)-amino]-pyridin-2-yl}-amide]
EC50: 2710 nM

CC(=O)Nc1ccc(-c2cc3ccccc3o2)cc1 [MLS000036584]
EC50: 556 nM

O=C(Nc1nnc(C2CCCCC2)s1)c1ccco1 [MLS000039439]
EC50: 596 nM

CC(=O)c1c(C)[nH]c(C(=O)NCCc2cccc(C)c2)c1C [MLS000045238]
EC50: 2930 nM

O=C(NCC1CCCO1)c1coc2nc3ccccc3nc12 (stereo not given) [MLS000046703]
EC50: > 99000 nM

O=C(Nc1ccc2c(c1)OCO2)c1ccc(COc2ccc3c(c2)CCC3)o1 [MLS000048173]
EC50: 446 nM

COc1ccc(CCC(=O)Nc2ccc(-c3noc(-c4ccc(OC)c(OC)c4)n3)cc2)cc1 [MLS000049572]
EC50: 2460 nM

O=C(Nc1ccc(-c2cn3ccsc3n2)cc1)C1CC1 [MLS000053249]
EC50: 653 nM

COc1ccc(NC(=O)c2ccc3c(c2)OCO3)cc1Cl [MLS000053302]
EC50: > 99000 nM

CS(=O)(=O)c1ccc2nc(NC(=O)C3COc4ccccc4O3)sc2c1 (stereo not given) [MLS000056123]
EC50: 7320 nM

O=C(Nc1ccc(CN2CCOCC2)cc1)c1cc2ccccc2o1 [MLS000062478]
EC50: 480 nM

CC(C)(C)c1cc(NC(=O)C2CCCO2)no1 (stereo not given) [MLS000065845]
EC50: 2530 nM

O=C(NCc1ccco1)c1cc2c(s1)CCCCC2 [MLS000065859]
EC50: > 1220 nM

CCOC(=O)c1cc2cc(OC)ccc2[nH]1 [MLS000071430]
EC50: 1570 nM

C=CCn1c(-c2ccccc2)c[nH]c1=S [MLS000071728]
EC50: 1470 nM

CCOc1ccc(OCC)c(NC(=O)CSc2nc3c(c(=O)n(C)c(=O)n3C)n2C(C)C)c1 [MLS000072726]
EC50: 736 nM

Cc1cnc(NC(=O)CSc2nnc(-c3ccccc3)o2)s1 [MLS000077990]
EC50: 4140 nM

CCOC(=O)c1[nH]c2ccc(C)cc2c1N [MLS000079379]
EC50: 731 nM

Nc1nc2c(s1)CCc1c-2cnn1-c1ccccc1 [MLS000085948]
EC50: 551 nM

Cc1cc(C(=O)Nc2sc3c(c2C#N)CCC(C(C)(C)C)C3)no1 (stereo not given) [MLS000087312]
EC50: 8140 nM

CN(C)C=Nc1ncnc2c1cnn2-c1ccc(C(F)(F)F)cn1 [MLS000087855]
EC50: > 99000 nM

CCCc1cc(C(=O)Nc2ccccc2SC)no1 [MLS000116378]
EC50: 9170 nM

CC(=O)c1cccc(NC(=O)c2cnn3ccccc23)c1 [MLS000118777]
EC50: 1220 nM

CCOc1ccc(OCC)c(NC(=O)C2CCCN2S(=O)(=O)c2cccc3cccnc23)c1 (stereo not given) [MLS000119093]
EC50: 2160 nM

COc1ccccc1Nc1nc2ccccc2[nH]1 [N-(2-methoxyphenyl)-1H-benzimidazol-2-amine]
EC50: 1620 nM

CC(=O)Nc1ccc(-c2nc3c(C)cccc3[nH]2)cc1 [SMR000001134]
EC50: 747 nM

Cc1cc2n(n1)C(c1ccc(N(C)C)cc1)Nc1ccccc1-2 (stereo not given) [SMR000015202]
EC50: 10800 nM

CC1(C)CC(=O)C(=CNc2ccccc2)C(=O)C1 [SMR000054233]
EC50: > 99000 nM

O=c1[nH]c2ccccc2nc1-c1cccs1 [SMR000068248]
EC50: 3720 nM

CN(C)C(=O)CSc1nnc(C23CC4CC(CC(C4)C2)C3)o1 [SMR000077996]
EC50: 5360 nM

CCCCC1CCC(c2nc(-c3ccccn3)no2)CC1 (stereo not given) [SMR000105468]
EC50: 403 nM

CC1(C)CC(=O)C(=CNc2ccc3[nH]ncc3c2)C(=O)C1 [SMR000111453]
EC50: 9880 nM

COCCn1c(C)cc(C(=O)COC(=O)C23CC4CC(CC(O)(C4)C2)C3)c1C [[2-[1-(2-methoxyethyl)-2,5-dimethylpyrrol-3-yl]-2-oxoethyl] 3-hydroxyadamantane-1-carboxylate]
EC50: 741 nM
